Data reported in patent US9498420B2, “Cosmetic compositions and methods for inhibiting melanin synthesis” (The Procter & Gamble Company, priority 2013, dated 2016).

Test system: B16-F1 mouse melanoma cells
Assay: Melanin Synthesis Assay
Type: cell-based
Description: A B16-F1 mouse melanoma cell line may be employed as an assay to measure melanin synthesis. The B16-F1 cells may be obtained from […], Virginia, USA. The cell culture medium that may be used in the assay may comprise 500 mL of Dulbecco's Modified Eagle's Medium (DMEM), 50 mL Fetal Bovine Serum (FBS), and 5 mL of penicillin-streptomycin liquid. B16-F1 cells that are cultured in this medium and grown to greater than 90% confluency synthesize melanin. While not intending to be bound by any theory, it is hypothesized that melanin synthesis is stimulated by the culture medium and/or stress induced by growth to a high confluency. The DMEM and FBS can be obtained from […] and the penicillin-streptomycin liquid can be obtained from Invitrogen, Inc., California, USA. Equipment used in the assay include a CO2 incubator, such as a Forma Series Model 3110 by Therma Scientific, Massachusetts, USA; a hemocytometer, such as a Bright Line model by Hauser Scientific, Pennsylvania, USA; and a UV-Visible Spectrum Plate Reader, such as a SpectraMax250 from Molecular Devices, California, USA. The assay steps may include: Day 0—Cell Growth: Warm the cell culture medium to 37° C. and place 29 mL into a T-150 flask. Add approximately 1×10^6 of B16-F1 passage 1 mouse cells to the T-150 flask and incubate for 3 days at 37° C., 5% CO2, 90% relative humidity, until ˜80% confluency; Day 3—Initiate a 96 Well Plate: At day 3, trypsinize the cells from the T-150 flask and determine the concentration of cells using a hemocytometer. Initiate a 96 well plate with 2,500 cells per well in 100 microliters of cell culture medium. […] Read the 96 well plate using the UV-Vis Plate Reader at 410 nm to optically measure the amount of melanin produced between wells that are treated with [test compound] and control wells that are not treated with a test compound. […] Percentage of melanin synthesis inhibition is calculated by the following equation: [formula] Where OD410 is the Optical Density at 410 nm as measured by the UV-Vis Spectrum Plate Reader. […]

SMILES | Average Melanin % Inhibition (Table 2, B16-F1 cells, where present: 0.03% batyl alcohol, 0.003% bisabolol, 0.0005% hexyldecanol, 0.0001% undecylenoyl phenylalanine, 0.0005% niacinamide) [%] | reduction in the production of melanin as compared to Sample 9 (HD/UP/Nia) (Table 2 concentrations, mouse melanoma cells, statistical comparison) | reduction in the production of melanin as compared to Sample 4 (HD/UP/Nia) (Table 1 concentrations, B16-F1 mouse melanoma cells, statistical comparison)
CCCCCCCCCCCCCCCCCCOCC(O)CO (stereo not drawn) [Sample 8, batyl alcohol] | 7 | did not significantly reduce | 
CC(C)=CCC[C@](C)(O)[C@@H]1CC=C(C)CC1 [Sample 1, bisabolol] |  |  | did not significantly reduce
